Molecules are shown by their SMILES. Bounds are passed on as bounds.

Usually melting point stands for the temperature of the solid-liquid transition.

`COc1ccc2ccn(CC(N)=O)c2c1`: the melting point lay in the range of 210 to 211 °C.

Consider `CCCCc1c2c(nc3cc(F)c(F)cc13)-c1cc3c(c(=O)n1C2)COC(=O)CC3(O)CC` (stereo not given), for which the melting point is over 275 °C.

In turn, `CC(C)(C)NC(=O)C1CCC(c2ccccc2)N1C(=O)CNC(=O)OC(C)(C)C` (stereo not given) showed a melting point of 117 °C.

Turning to `Cc1ccnc(C(=O)c2[nH]c3cc(Cl)ccc3c2NC(=O)[C@H](C)O)c1`, the melting point is 206 to 207 °C.

`COC(=O)c1cccc(-c2c(C)cc(OC3CCS(=O)(=O)CC3)cc2C)c1` yielded a melting point of 180 °C.

The molecule `CCC(CC)N(O)C(=O)NC(C)(C)c1cccc(C(C)(C)NC(=O)N(O)C(CC)CC)c1` displayed a melting point of 170 to 172 °C.

Regarding `CC(C)(C)COc1c(-c2ccc(S(C)(=O)=O)cc2)cnn(-c2cccc(Cl)c2)c1=O`, the melting point was in the range of 151 to 153 °C.

Consider `CCNC(=NC#N)NCc1cccnc1`, for which the melting point is 177 to 179 °C.

The molecule `CCN(CC)S(=O)(=O)c1cc2oc(-c3ccccc3)nc2c2ccccc12` displayed a melting point of 157 °C.

Take `CCOc1cc(-c2cc(C(F)(F)F)n3ncc(C(=O)Nc4cc(S(=O)(=O)NC(C)(C)CO)sc4Cl)c3n2)ccc1C(F)(F)F`: the melting point was 234 °C.

Turning to `Oc1ccc2c(c1)C(c1ccc(OCCN3CCCCC3)cc1)c1c-2ccc2ccccc12` (stereo not given), the melting point was in the range of 180 to 181 °C.

`O=C1CCCC(O)=C1NC(=O)C1CC1`: the melting point was found to be 82 °C.

In turn, `CCC(O)(c1ccc(OCc2cccc(C)n2)cc1)c1cc(C)ccc1C` (stereo not given) came in with a melting point of 107 to 108 °C.

In turn, `CC(C)c1c(Cl)nc(OCc2ccccc2)nc1OCc1ccccc1` yielded a melting point of 77 to 78 °C.

`O=C(c1cc(O)c(O)cc1[N+](=O)[O-])N1CCC(N2CCCCC2)CC1` yielded a melting point of 290 °C.

The molecule `CCn1cc(C(=O)O)c(=O)c2cc(F)c(N3CCN(C)C(COC(C)C)C3)cc21` (stereo not given) returned a melting point of 184 to 186 °C.

As for `CCSc1ccc(NC=O)cc1S(N)(=O)=O`, the melting point stood at 127 °C.

Take `C=C1CCC2C3Cc4ccc(O)cc4C2(CCN3CC2CC2)C1` (stereo not given): the melting point lay in the range of 220 to 223 °C.

Molecule `CSc1ccc(Cl)c(C(=O)Nc2ccc(-n3nc(C4CC4)cc3C3CC3)cc2)c1` came in with a melting point of 168 to 173 °C.

`CCOc1cc2c(c3c1OC(C)(C)C3)C(c1cccc(C(=O)NCC(N)=O)c1)=NC(C)(C)C2` registered a melting point of 127 to 128 °C.

In turn, `CCCCC[C@H]1CC[C@H](CC(=O)c2ccc(-c3ccc(CC)cc3F)cc2)CC1` registered a melting point of 72 to 73 °C.

Molecule `O=C(CCCN1CCN(c2ccc(F)cc2)CC1)NC1c2ccccc2CSc2ccccc21` (stereo not given) registered a melting point of 194 °C.

`CCc1nnc2nc(-c3ccccc3)ccn12` registered a melting point of 246 to 247 °C.

Take `COC1=C(OC)C(=O)C(CCCCCCCCCCOC(C)=O)=C(C)C1=O`: the melting point came out at 38 °C.

`CC(C)(c1ccc(C(C)(C)c2ccc(O)cc2O)cc1)c1ccc(O)cc1O`: the melting point fell in the range of 110 to 115 °C.

`O=C(NCCCCCCNC(=O)Nc1cccnc1)Nc1cccnc1` yielded a melting point of 197 to 199 °C.

In the case of `COc1ccc(C(O)C=Cc2ccc(N(C)C)cc2)cc1` (stereo not given), the melting point lay in the range of 137 to 148 °C.

For the molecule `O=C(OO)c1cccc(Cl)c1`, the melting point is 127 to 129 °C.

Regarding `CCC(=O)N(CC)c1cccc(-c2ccc3nnc(NC)n3n2)c1`, the melting point lay in the range of 172 to 173 °C.

Regarding `O=c1[nH]c(=O)n(Cc2cccc(OCc3noc(-c4ccc(Cl)cc4)n3)c2)o1`, the melting point is 159 to 160 °C.

Regarding `CS(=O)(=O)Oc1ccc([N+](=O)[O-])c(OCCBr)c1`, the melting point lay in the range of 96 to 98 °C.

In turn, `O=c1c2c(n(-c3ccccc3)c3ncccc13)OC(CBr)C2` (stereo not given) had a melting point of 187 to 188 °C.

Molecule `CCOC(=O)c1cn(-c2cc(NC(=O)OC(C)(C)C)c(F)cc2F)c2c(C)c(F)c(F)c(C)c2c1=O` came in with a melting point of 141 to 142 °C.

Take `O=C(Nc1ccc(-n2cccn2)c(F)c1)OCc1ccccc1`: the melting point lay in the range of 82 to 83 °C.

Turning to `CCCCCCn1ccc(NC(C)=O)nc1=O`, the melting point is 129 to 130 °C.

`NC(=O)Cc1ccc2c(c1)C(=O)c1ccccc1CO2` gave a melting point of 157 to 158 °C.

Consider `CS(=O)(=O)c1ccc(-c2cnn(-c3ccc(F)cc3)c(=O)c2S(=O)(=O)c2ccccc2)cc1`, for which the melting point was 203 to 204 °C.

The molecule `CC(=O)NCC(NC(C)=O)c1ccccc1` (stereo not given) gave a melting point of 155 to 156 °C.

In the case of `CCC1(CCCN2CCN(c3cccc(Cl)c3)CC2)C(=O)Nc2ccc(Cl)cc21` (stereo not given), the melting point lay within 117 to 119 °C.

As for `O=C(OCc1ccc(-c2ccccc2)cc1)c1cccc(CCl)c1`, the melting point amounted to 102 °C.

On to `Cc1ccccc1C(Oc1cc(OCc2ccoc2)ccc1C#N)C(=O)O` (racemic), for which the melting point was in the range of 141 to 143 °C.

`CCCCCCCCCCCC(=O)NCCO` yielded a melting point of 80 to 84 °C.

On to `CC(CNc1nc(Cl)ncc1Cl)NS(C)(=O)=O` (stereo not given), for which the melting point was found to be 160 °C.

In the case of `N#Cc1cc(-c2ccc(C(F)(F)F)cc2)ccc1-n1cc(-c2cc(F)cc(F)c2)nn1`, the melting point lay in the range of 229 to 230 °C.

On to `CCOC(=O)c1c(C)cc2nc(COC(=O)NCCO)n(-c3ccccc3S(=O)(=O)NC)c(=O)c2c1C`, for which the melting point was in the range of 122 to 125 °C.

The molecule `CCOC(=O)CCCC1Sc2ccccc2NC1=O` (stereo not given) registered a melting point of 78 to 79 °C.

Turning to `COc1cccc2c1C(=O)NS2(=O)=O`, the melting point came to 224 °C.

Molecule `N#Cc1ccc(-c2ccc(Cl)c(OC3SCC(O)C(O)C3O)c2)cn1` (stereo not given) had a melting point of 192 °C.

Regarding `CCOC(=O)CN1Cc2ccccc2CC(N)C1=O` (stereo not given), the melting point was in the range of 71 to 73 °C.

Turning to `COc1ccc(Oc2c(C)cc([N+](=O)[O-])cc2C)cc1C(=O)c1ccc(F)cc1`, the melting point is 167 to 168 °C.

Take `Cn1cnc(COc2nc3c(cc2-c2cccs2)nnn3-c2ccccc2F)n1`: the melting point fell in the range of 179 to 181 °C.

`Nc1ncc(CCC2CCCC2)s1` registered a melting point of 77 to 78 °C.

Consider `CCCOc1ccc(S(=O)(=O)NCc2ccncc2)cc1-c1nc2cc(N)c(N)cc2c(=O)[nH]1`, for which the melting point lay within 157 to 160 °C.

As for `CNC(=O)C1CCCCN1C(=O)OC(C)(C)C` (stereo not given), the melting point is 83 to 83.5 °C.

As for `Cc1cccc(CNc2nc(NC[C@@H](C)O)nc3c2ncn3C(C)C)c1O`, the melting point was in the range of 145 to 147 °C.

In turn, `CN1Cc2c(Cl)ncn2-c2cccnc2C1=O` had a melting point of 247 to 248 °C.

The molecule `COc1ccc(CNC(=O)c2ccccc2N)cc1` came in with a melting point of 104 to 105 °C.

Take `COC(=O)c1ccc2c(CCCNc3ccccn3)nn(C)c2c1`: the melting point was in the range of 101 to 104 °C.

For `CC(C)Cn1nnc2c3ncnc-3c3ccncc3n21`, the melting point lay within 181 to 182 °C.

As for `Nc1cccc(Cn2c(-c3ccc(-c4cccnc4)cc3)ccc2-c2ccccc2Cl)n1`, the melting point lay in the range of 139 to 145 °C.

In the case of `O=C1CCc2cccc3c2N1C(=O)CC3`, the melting point lay within 136 to 140 °C.

In the case of `CC(C)(C)C(=O)C(=Cc1ccc(Cl)cc1)n1cncn1`, the melting point is 82 °C.

`O=CNCC1CCN(C(c2ccccc2)c2ccccc2)CC1`: the melting point turned out to be 125 °C.

With `COc1ccc(CNc2nc(Cl)ccc2C=O)cc1Cl`, the melting point is 134 to 138 °C.

Consider `CC1NC(=O)NN=C1c1ccc(N)cc1` (stereo not given), for which the melting point fell in the range of 248 to 250 °C.

The values are drawn from a melting point compilation (Tetko et al.; mined from patent text by program, amines drawn as free bases though some values may be those of a salt).
